Reference: the supplement of paper PMC4862054

Columns and labels:
Assay in all cases: normalised viability (% of control), CellTiter-Blue; higher = more viable cells (about 100 = DMSO control)
Details in all cases: incubation time: 72 h
BT-474 = test system: BT-474
Procedure: (§1)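 DSRT, CellTiter-Blue viability, 72 h incubation. Signal is normalised to DMSO and benzethonium chloride controls. Value is the normalised response at dose 3.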

BT-549 = test system: BT-549
Procedure: as §1

CAL-120 = test system: CAL-120
Procedure: as §1

CAL-148 = test system: CAL-148
Procedure: as §1

CAL-51 = test system: CAL-51
Procedure: as §1

CAL-85-1 = test system: CAL-85-1
Procedure: as §1

DU-4475 = test system: DU-4475
Procedure: as §1

HCC1143 = test system: HCC1143
Procedure: as §1

HCC1599 = test system: HCC1599
Procedure: as §1

HCC1937 = test system: HCC1937
Procedure: as §1

HDQ-P1 = test system: HDQ-P1
Procedure: as §1

Hs578T = test system: Hs578T
Procedure: as §1

MDA-MB-231 = test system: MDA-MB-231
Procedure: as §1

MDA-MB-436 = test system: MDA-MB-436
Procedure: as §1

MDA-MB-453 = test system: MDA-MB-453
Procedure: as §1

MDA-MB-468 = test system: MDA-MB-468
Procedure: as §1

MFM-223 = test system: MFM-223
Procedure: as §1

SK-BR-3 = test system: SK-BR-3
Procedure: as §1

SMILES	normalised viability (BT-474; 100 nM) [%]	normalised viability (BT-549; 100 nM) [%]	normalised viability (CAL-120; 100 nM) [%]	normalised viability (CAL-148; 10 nM) [%]	normalised viability (CAL-51; 10 nM) [%]	normalised viability (CAL-85-1; 10 nM) [%]	normalised viability (DU-4475; 10 nM) [%]	normalised viability (HCC1143; 100 nM) [%]	normalised viability (HCC1599; 100 nM) [%]	normalised viability (HCC1937; 100 nM) [%]	normalised viability (HDQ-P1; 10 nM) [%]	normalised viability (Hs578T; 100 nM) [%]	normalised viability (MDA-MB-231; 100 nM) [%]	normalised viability (MDA-MB-436; 100 nM) [%]	normalised viability (MDA-MB-453; 10 nM) [%]	normalised viability (MDA-MB-468; 100 nM) [%]	normalised viability (MFM-223; 100 nM) [%]	normalised viability (SK-BR-3; 100 nM) [%]	normalised viability (BT-474; 10 nM) [%]	normalised viability (BT-549; 10 nM) [%]	normalised viability (CAL-120; 10 nM) [%]	normalised viability (CAL-148; 1 nM) [%]	normalised viability (CAL-51; 1 nM) [%]	normalised viability (CAL-85-1; 1 nM) [%]	normalised viability (DU-4475; 1 nM) [%]	normalised viability (HCC1143; 10 nM) [%]	normalised viability (HCC1599; 10 nM) [%]	normalised viability (HCC1937; 10 nM) [%]	normalised viability (HDQ-P1; 1 nM) [%]	normalised viability (Hs578T; 10 nM) [%]	normalised viability (MDA-MB-231; 10 nM) [%]	normalised viability (MDA-MB-436; 10 nM) [%]	normalised viability (MDA-MB-453; 1 nM) [%]	normalised viability (MDA-MB-468; 10 nM) [%]	normalised viability (MFM-223; 10 nM) [%]	normalised viability (SK-BR-3; 10 nM) [%]
Cn1c(CCCC(=O)O)nc2cc(N(CCCl)CCCl)ccc21 [Bendamustine]	108	109	88.2	108	106	102	120	105	105	97.4	112	83.7	93.2	83.4	112	96.3	102	67.7																		
C#Cc1cccc(Nc2ncnc3cc(OCCOC)c(OCCOC)cc23)c1 [Erlotinib]	103	110	102	98.8	102	95.4	94.9	92.9	78	106	109	85.4	96.6	109	114	95	88.5	88.7																		
Cc1ccc(-n2nc(C(C)(C)C)cc2NC(=O)Nc2ccc(OCCN3CCOCC3)c3ccccc23)cc1 [Doramapimod]	93.8	98.7	87.3	95.3	110	91.1	106	100	90.9	94.7	93.8	78	92.5	86	106	98	109	69.7																		
Cc1ccc(C(=O)N(CCCN)[C@@H](c2oc3cc(Cl)ccc3c(=O)c2Cc2ccccc2)C(C)C)cc1																			30.3	27.4	31.1	92.5	103	98.7	105	46.6	80.5	25.2	105	19.5	27.6	55.9	112	29.1	41.6	18
O=P1(NCCCl)OCCCN1CCCl (stereo not given) [Ifosfamide]	120	115	91.2	92.2	107	95.5	110	83.4	108	107	125	94.9	108	95.3	99.8	98.7	81.2	70.5																		
CO[C@H]1/C=C\C=C(/C)C(=O)NC2=CC(=O)C(NCCN(C)C)=C(C[C@@H](C)C[C@H](OC)[C@H](O)[C@@H](C)/C=C(\C)[C@@H]1OC(N)=O)C2=O [Alvespimycin]																			92.1	43.2	86.3	109	90	97.2	105	86.1	77	55.9	112	51.5	97.2	74.9	93.4	102	58.3	51.5
COc1cc([C@@H]2c3cc4c(cc3[C@@H](O[C@@H]3O[C@@H]5CO[C@@H](C)O[C@H]5[C@H](O)[C@H]3O)[C@H]3COC(=O)[C@H]23)OCO4)cc(OC)c1O [Etoposide]	108	77.5	90.8	93.8	91.1	101	115	84	115	91.3	94.2	84.3	96.6	97.6	108	94.2	98.7	58.5																		
CN(N=O)C(=O)N[C@@H](C=O)[C@@H](O)[C@H](O)[C@H](O)CO [Streptozocin]	104	104	105	99.6	109	105	99.1	101	101	90.7	106	102	101	101	112	106	90.6	95.7																		
C[C@]12CC[C@@H]3c4ccc(O)cc4C[C@@H](CCCCCCCCC[S+]([O-])CCCC(F)(F)C(F)(F)F)[C@H]3[C@@H]1CC[C@@H]2O (stereo not given in full) [Fulvestrant]	89.2	94.8	78.5	86.5	112	95.8	105	77.8	113	91.9	93.3	85.5	79.9	103	81.3	87.2	70.4	94.3																		
CC1(C)NC(=O)N(c2ccc([N+](=O)[O-])c(C(F)(F)F)c2)C1=O [Nilutamide]	119	99.6	99.4	95	101	105	100	96.2	95.5	99.7	149	111	106	96.6	112	94.2	92.4	95.4																		
Cc1ccc(C(=O)Nc2ccc(CN3CCN(C)CC3)c(C(F)(F)F)c2)cc1C#Cc1cnc2cccnn12 [Ponatinib]																			103	107	105	103	96.6	95.9	105	100	114	91.6	117	99.6	101	101	110	110	65.5	78
NCC(=O)CCC(=O)O [Aminolevulinic acid]	114	104	99.7	104	101	98.4	104	88.9	87.9	91	100	101	110	104	99.1	103	91.7	99																		
Cn1c(Nc2ccc(C(F)(F)F)cc2)nc2cc(Oc3ccnc(-c4ncc(C(F)(F)F)[nH]4)c3)ccc21 [RAF265]																			103	84.1	82.2	94	92.9	92	92.1	77.8	97.2	93.2	109	89.7	100	98.9	100	104	88	102
O=C1CCC(N2C(=O)c3ccccc3C2=O)C(=O)N1 (stereo not given) [Thalidomide]	109	88	105	107	90.7	100	91.3	112	108	90.2	101	91.9	106	105	98.3	98.2	90.7	111																		
Oc1nc(-c2ccc(C(F)(F)F)cc2)nc2c1CSCC2 [XAV-939]	107	104	97.2	92.6	98.8	96.3	111	77.6	116	101	104	88.3	89.1	128	101	107	96.5	112																		
CCC1=C[C@@H]2CN(C1)Cc1c([nH]c3ccccc13)[C@@](C(=O)OC)(c1cc3c(cc1OC)N(C)[C@H]1[C@@](O)(C(=O)OC)[C@H](OC(C)=O)[C@]4(CC)C=CCN5CC[C@]31[C@@H]54)C2 [Vinorelbine]	43.6	23.4	30.6	105	99.9	91.3	107	54.4	90.4	28	99.6	28.7	37.2	56.8	61.1	39.9	49.1	15.7																		
CN[C@@H]1C[C@H]2O[C@@](C)([C@@H]1OC)n1c3ccccc3c3c4c(c5c6ccccc6n2c5c31)C(=O)N[C@H]4O [UCN-01]	94.6	52.3	30.4	98.5	97.5	86.9	101	50.2	56.3	42	72.9	14.4	37	75.1	106	56.2	66.9	44.2																		
COc1cc2nccc(Oc3ccc(NC(=O)C4(C(=O)Nc5ccc(F)cc5)CC4)cc3)c2cc1OC [Cabozantinib]																			122	104	80.7	98.6	96.9	91.8	89.4	81.3	82.3	95.4	99.5	91.1	100	108	98.5	123	93.5	76.2
CNCc1ccc(-c2[nH]c3cc(F)cc4c3c2CCNC4=O)cc1 [Rucaparib]	100	112	93.3	83.4	114	87.6	106	110	114	85.9	109	75.2	98	129	98.8	110	109	76.4																		
NC(=O)Nc1cc(-c2cccc(F)c2)sc1C(=O)N[C@H]1CCCNC1 [AZD 7762]																			124	120	114	105	100	99.8	113	105	101	105	115	104	114	96.1	104	107	96.2	97.6
